Assays:
[1] = tested on: Botrytis cinerea; assay: Fungicide fogging of wounded, inoculated Red Delicious apples: Botrytis lesion size; format: in vivo, Botrytis cinerea on Red Delicious apples; details: measured Day 4
Experimental: (§1) This experiment was conducted exactly the same as described above in Example 1 unless noted otherwise. For example, instead of Golden Delicious apples, this experiment was performed on Red Delicious apples, which are harvested later in the season than Golden Delicious apples. Freshly harvested Red Delicious apples were wounded on the left and right side with Penicillium and Botrytis fungal pathogens, respectively. After inoculation, the apples remained at 20° C. throughout the remainder of the experimental trial to measure growth of the Botrytis fungal pathogen. Inoculated fruits were separated in preparation for an initial trial which comprised three replicates of 10-fruit cohorts totaling 5.5 kg of Red Delicious apples, respectively (see Table 1).
(§2) In this trial, replicate cohorts of Red Delicious apples were fog treated with 250 μL of the benzoxaborole (BOB) solution, 620 μL of the thiabendazole (TBZ) solution, 410 μL of the pyrimethanil (PYR) solution, or 250 μL of the fludioxonil (FDL) solution, respectively (see Table 1). The fungicide fogging treatment was applied to the Red Delicious apples in the sealed treatment chamber comprising a volume of 1.1 m^3 such that the final concentration of active ingredient (“ai”) of each fungicide applied to the Red Delicious apples during the trial was 4.6 mg/kg of benzoxaborole (BOB), 11.2 mg/kg of thiabendazole (TBZ) solution, 11.8 mg/kg of pyrimethanil (PYR) solution, and 4.6 mg/kg of fludioxonil (FDL), respectively (see Table 1).
(§3) After 24 hours of fungicide treatment in the sealed chamber at 20° C., treated apples were returned back to the closed, controlled environment for storage. As described in Example 1, storage of treated Red Delicious apples occurred for at least 12 hours and for up to approximately 72 hours until Day 4 when fungal lesions on the treated Red Delicious apples were measured (see Table 2).

[2] = tested on: Penicillium expansum and Botrytis cinerea; assay: Fungicide fogging of wounded, inoculated Golden Delicious apples: fungal lesion size; format: in vivo; details: 24 h fog at 20° C., measured Day 3 or 4
Excerpt: Freshly harvested plants and crops, such as fruit crops (e.g. apple fruits), were wounded and inoculated with fungal pathogens. Immediately after harvest on Day 0, Golden Delicious apples were wounded on the left and/or the right sides of the fruit. The wounds were immediately inoculated with one or more fungal strains. For example, the wounds on the left side of the fruit were inoculated with Penicillium, while the wounds on the right side of the fruit were inoculated with Botrytis. After inoculation, the apples remained at 20° C. throughout the remainder of the experimental trial.
Inoculated fruits were separated in preparation for an experimental trial that comprised three replicates of 10-fruit cohorts each totaling 5.1 kg of Golden Delicious apples (see Table 1). After inoculation, the apples were held at 20° C. in a closed, controlled environment until fungicide treatment. Prior to fungicide treatment, a fruit cohort was removed from the controlled environment and transported to a sealed treatment chamber having a temperature of 20° C. The fruit cohorts were each treated with a single respective fungicide on Day 0 (i.e., day of harvest), as well as Days 1, 2, 3, and/or 4 after harvest (see Table 2).
More specifically, each fruit cohort was treated a single time for 24 hours with a specific fungicide solution comprising the following active ingredients: benzoxaborole (BOB), thiabendazole (TBZ), pyrimethanil (PYR), and fludioxonil (FDL) as described in Table 1 below. The fungicide solutions used to treat inoculated apples comprised the following concentration of active ingredients: a 100 g/L of benzoxaborole (BOB), thiabendazole (TBZ), and fludioxonil (FDL), or a 160 g/L of pyrimethanil (PYR), respectively (see Table 1).
Inoculated fruits were also treated with a propylene glycol-inoculated negative control (GLY IC). This propylene glycol-inoculated control treatment comprised only propylene glycol, a common fungicide treatment carrier, with no active ingredient (see Table 1). In addition, another cohort of inoculated fruits was not treated with a fungicide at all to produce an untreated inoculated control (UNTRT IC).
In this trial, replicate cohorts of Golden Delicious apples were treated by fogging with 167 μL of the benzoxaborole (BOB) solution, 270 μL of the thiabendazole (TBZ) solution, 410 μL of the pyrimethanil (PYR) solution, or 170 μL of the fludioxonil (FDL) solution, respectively (see Table 1). The fungicide fogging treatment was applied to the Golden Delicious apples in the sealed treatment chamber comprising a volume of 1.1 m^3 such that the final concentration of active ingredient (“ai”) of each fungicide applied to the Golden Delicious apples during the trial was 3.3 mg/kg of benzoxaborole (BOB), 8.0 mg/kg of thiabendazole (TBZ) solution, 8.5 mg/kg of pyrimethanil (PYR) solution, and 3.3 mg/kg of fludioxonil (FDL), respectively (see Table 1).
After 24 hours of fungicide treatment in the sealed chamber at 20° C., treated apples were returned back to the closed, controlled environment for storage. Storage of treated fruit occurred for at least 12 hours and for up to approximately 72 hours until Day 3 or Day 4 when fungal lesions on the treated fruit were measured (see Table 2). For example, inoculated fruit cohorts treated with fungicide on Day 0, where returned to the control chamber on Day 1 and stored there for at least 12 hours (e.g., approximately 48-72 hours) until their fungal lesions were measured on Days 3 or 4 (see Table 2). Inoculated fruit cohorts treated with fungicide on Day 1, where returned to the control chamber on Day 2 and stored there for at least 12 hours (e.g., approximately 24-48 hours) until their fungal lesions were measured on Days 3 or 4 (see Table 2). […]

[3] = tested on: Penicillium expansum; assay: Fungicide fogging of wounded, inoculated Red Delicious apples: Penicillium lesion size; format: in vivo, Penicillium expansum on Red Delicious apples; details: for Fungal Lesion Diameter: Penicillium expansum, measured Day 4; for Inhibition of Penicillium expansum fungal growth compared to untreated and propylene glycol controls / Penicillium expansum lesion sizes, range over treatment days: treated on Days 0-3
Experimental: as §1, §2, §3
This experiment was conducted exactly the same as described above in Example 2 unless noted otherwise. In particular, freshly harvested Red Delicious apples were wounded on the left and right side with Penicillium and Botrytis fungal pathogens, respectively. After inoculation, the apples remained at 20° C. throughout the remainder of the experimental trial to measure growth of the Penicillium fungal pathogen.

[4] = Fungicide Fog Day 0, 24 h fog at 20° C.
[5] = Fungicide Fog Day 1, 24 h fog at 20° C.
[6] = Fungicide Fog Day 2, 24 h fog at 20° C.
[7] = Fungicide Fog Day 3, 24 h fog at 20° C.
[8] = Fungicide Fog Day 0, Penicillium and Botrytis lesions averaged
[9] = Fungicide Fog Day 1, Penicillium and Botrytis lesions averaged
[10] = Fungicide Fog Day 2, Penicillium and Botrytis lesions averaged

SMILES | Fungal Lesion Diameter [1, 4] [mm] | Fungal Lesion Diameter [1, 5] [mm] | Fungal Lesion Diameter [1, 6] [mm] | Fungal Lesion Diameter [1, 7] [mm] | Fungal Lesion Diameter [2, 8] [mm] | Fungal Lesion Diameter [2, 9] [mm] | Fungal Lesion Diameter [2, 10] [mm] | Fungal Lesion Diameter [3, 4] [mm] | Fungal Lesion Diameter [3, 5] [mm] | Fungal Lesion Diameter [3, 6] [mm] | Fungal Lesion Diameter [3, 7] [mm] | Inhibition of Penicillium expansum fungal growth compared to untreated and propylene glycol controls [3] | Penicillium expansum lesion sizes, range over treatment days [3]
N#CC1=CN=CC1c1cccc2c1OC(F)(F)O2 (stereo not shown) [FDL, 4-(2,2-difluoro-1,3-benzodioxol-4-yl)-1H-pyrrole-3-carbonitrile] | 4.1 | 7.0 | 8.2 | 11.7 | 1.6 | 2.7 | 3.0 | 11.0 | 13.2 | 13.4 | 15.5 |  | 
Cc1cc(C)nc(Nc2ccccc2)n1 [PYR, 4,6-Dimethyl-N-phenylpyrimidin-2-amine] | 9.2 | 10.4 | 12.4 | 12.5 | 0.4 | 1.3 | 3.6 | 17.2 | 17.1 | 18.3 | 18.3 | Neither treatments comprising pyrimethanil (PYR) nor thiabendazole (TBZ) showed a consistent increase in inhibition of Penicillium expansum fungal growth or any significant difference | 17.1-18.3 mm
c1ccc2[nH]c(-c3cscn3)nc2c1 [TBZ, 4-(1H-1,3-Benzodiazol-2-yl)-1,3-thiazole] | 10.9 | 12.1 | 12.7 | 12.4 | 2.0 | 4.5 | 4.9 | 18.0 | 18.4 | 17.6 | 18.3 | Neither treatments comprising pyrimethanil (PYR) nor thiabendazole (TBZ) showed a consistent increase in inhibition of Penicillium expansum fungal growth or any significant difference | 17.6-18.4 mm

From patent US20260026522A1, “METHODS AND DEVICE FOR CO-TREATMENT OF CROP PROTECTION CHEMICALS WITH PLANT GROWTH REGULATORS” (AGROFRESH INC., priority 2016, published 2026)
